# Data: patent publication US12516085B2, “Methods and compositions for treating Myc-driven cancers” (Sanford Burnham Prebys Medical Discovery Institute, priority 2019, dated 2026)
# Entries after “also recorded” stand apart in the source; their conditions may differ.
# Tests used:
# Format in all cases: cell-based
# [1] = test system: Hi- and Lo-Myc cell lines; experiment: Proliferation of Hi- and Lo-Myc cell lines transfected with lentiviral vectors expressing GFP, HNB or HNB(ATG>TGA); conditions: 8 Hi- and Lo-Myc cell lines; lentiviral overexpression
# Text: To determine the function of the HNB, the Hi- and Lo-Myc cell lines were transfected with lentiviral vectors expressing GFP, HNB or HNB where the start site has been mutated (HNB(ATG>TGA)).
# MSTO-211H-HNB^i = experiment: Proliferation after Doxycycline-induced HNB expression, MSTO-211H-HNB^i; conditions: following Doxycycline treatment
# Procedure: (§1) In addition, an inducible lentiviral system was developed, in which the transgene could be expressed under a Doxycycline inducible promoter. The system was verified by inserting eGFP as the transgene and by flow analysis of GFP^+ cells in absence and presence of doxycycline as shown in FIG. 8. […] The same system was used to clone HNB under the regulation of a Doxycycline inducible promoter and generate the cell lines MSTO-211H-HNB^i and U2OS-HNB^i. […] Western blot analysis was performed of Myc protein in Hi-Myc cell line MSTO-211H-HNB^i.
# U2OS-HNB^i = experiment: Proliferation after Doxycycline-induced HNB expression, U2OS-HNB^i; conditions: following Doxycycline treatment
# Procedure: as §1
# Myc protein = experiment: Western blot of Myc protein after Doxycycline-induced HNB expression in MSTO-211H-HNB^i; conditions: Hi-Myc cell line MSTO-211H-HNB^i; following Doxycycline induction
# Procedure: as §1
substance,measurement,setting,value
HNB: 14 amino acid micro-peptide MKTQLGAVKGFLHV (SEQ ID NO: 1) coded by shORF at Exon 3-4 junction of PVT1ts; expressed from lentiviral vectors,proliferation,[1],failed to proliferate
same,proliferation rate,MSTO-211H-HNB^i,significant reduction in their proliferation rates
same,proliferation rate,U2OS-HNB^i,significant reduction in their proliferation rates
same,"Myc protein expression (western blot, relative to β-Actin)",Myc protein,decreased; also recorded: reduced MYC protein
